22 compounds from patent US10011609B2, “Heterocyclic compounds” (CADILA HEALTHCARE LIMITED, priority 2013, dated 2018) can be followed below.

Structures can show the parent of a compound that is named as a salt. Where two headings read alike, the source gives them in different places.

One may read the EC50 as the concentration giving half of the maximal effect. As a reminder, the ED50 is the dose that gives a 50% effect, or the effect in half of the subjects. High values mean weaker potency, low ones greater potency. Broadly, the AUC(0-t) is exposure summed from dosing to a finite time, without extrapolation to infinity. Lower therefore signals less exposure. One may read the clearance as a measure of how efficiently the substance is removed, as volume per time. What is called Cmax is the maximum level reached in the sampled fluid or tissue. For orientation: Tmax means the time from dosing to the highest level. Usually bioavailability stands for dose-corrected exposure relative to a reference, in per cent. High values mean much systemic uptake, low ones little systemic uptake.

One data set concerns the target T1, GPR40 (Homo sapiens, UniProt O14842).
T1 construct: host or cells: HEK293 (ChemiBrite cell line)
As to the kind of experiment: Promoter-luciferase assay to measure GPR40 activation (HEK293 cells stably transfected with GPR40 cDNA). In kind it is cell-based. The settings on record: HEK293 cells stably transfected with GPR40, 5xSRE-luciferase. How it is done:
GPR40 activation was measured in HEK293 cells stably transfected with GPR40 cDNA (ChemiBrite cell lines from Millipore, US). These cells were transiently transfected with a pGL2 (Promega Inc.) plasmid having a 5×SRE sequence, cloned 5′ of a luciferase gene along with a β-galactosidase plasmid as normalizing control. Briefly, 35000 cells/well were seeded in a 96 well plates. After overnight incubation at 37° C., the cells were washed with PBS and transfected with the 5×-SRE-Luciferase plasmid and the β-galactosidase plasmid. 6 h post transfection, media was removed and replaced with fresh media with different concentration of drugs and incubated for 16 more hours. The cells were then lysed in 50 μL of Glo-Lysis buffer (Promega) for 30 min at room temperature. The cells were then centrifuged and lysates were collected. Luciferase activity was measured by adding 100 μL of luciferase substrate (Promega) in 20 μL of lysate and measuring the luminescence in luminometer. The […] activity was also measured by adding 20 μL of lysates with 20 μL of β-galactosidase buffer (Promega) and monitoring the absorbance at 415 nm. Luciferase values were divided by β-galactosidase values to normalize transfection efficiency (Table 2)

For the next data set, the system named is n-STZ rat model. Kind of data set: Oral glucose tolerance test in n-STZ rat model. The format is in vivo, Wistar rat. To be noted: for % improvement in AUC glucose vs. control: n-STZ rat. How it is done:
Primary Screening Protocol for GRP40 agonist test compounds in n-STZ rat model
Wistar rat pups of 1-2 day old injected with Streptozotocin (STZ) at 120 mg/kg dose by intraperitoneal route. All pups allowed grow normally and at the age of 12-14 week they were screen for glucose intolerance by performing the oral glucose tolerance test by tail clip method using glucometer. Animals showing glucose intolerance were selected for evaluation of test compound. Three to seven days of rest period animals were kept on overnight fasting. […] Animals were administered with test compound and then 15-60 min after the compound administration “O” min blood glucose levels were measured and immediately glucose load at 2 g/kg was administered orally. Blood glucose levels were measured at 30, 60 and 120 min after glucose load using by tail clip method using glucometer. Blood was also collected at 10 min after glucose load for measurement of insulin levels. Glucose area under the curve (AUC) was calculated using Graph Pad Prism software and % reduction in AUC-glucose vs vehicle treated control was calculated (Table 3).

The nature of another data set: Pharmacokinetics in rats. To be noted: rat, in vivo; for MRT: read-out: Mean residence time.
[1] abbreviates: read-out: EC50 in Luciferase assay.

T1 sequence (O14842 whole entry, species assumed): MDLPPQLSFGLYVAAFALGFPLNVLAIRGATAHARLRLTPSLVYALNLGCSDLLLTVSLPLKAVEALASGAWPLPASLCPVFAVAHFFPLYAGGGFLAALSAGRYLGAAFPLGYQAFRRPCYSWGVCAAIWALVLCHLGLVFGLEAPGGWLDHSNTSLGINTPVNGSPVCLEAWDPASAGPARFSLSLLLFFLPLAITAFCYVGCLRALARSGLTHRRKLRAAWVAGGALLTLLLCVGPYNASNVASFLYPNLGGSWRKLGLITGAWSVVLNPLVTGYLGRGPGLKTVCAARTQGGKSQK

Take `CC#C[C@@H](CC(=O)[O][Ca][O]C(=O)C[C@H](C#CC)c1ccc(OCc2cccc(CN3CCc4nc(Cl)sc4C3)c2)cc1)c1ccc(OCc2cccc(CN3CCc4nc(Cl)sc4C3)c2)cc1` [Compound 60, Calcium (S)-3-(4-((3-((2-chloro-6,7-dihydrothiazolo[5,4-c]pyridin-5(4H)-yl)methyl)benzyl)oxy)phenyl)hex-4-ynoate]: the EC50 at GPR40 (EC50 in Luciferase assay) stood at 5.6 nM. Further, the “% improvement in AUC glucose vs. control” value in the data set with n-STZ rat model (1 mg/Kg per oral) turned out to be 44%. For the same compound, the “% improvement in AUC glucose vs. control” value with n-STZ rat model (10 mg/Kg per oral) was 47%. The compound also displayed an ED50 in the data set on n-STZ rat model (po, n-STZ rat OGTT model) of 0.04 mg/kg. Moreover, in the data set “Pharmacokinetics in rats” (iv 1 mg/Kg), the AUC(0-t) came out at 18600 ± 2170 ng·h/mL, the C0 turned out to be 3390 ± 330 ng/mL, the clearance was found to be 0.89 ± 0.1 mL/min/kg and the MRT is 6.28 ± 0.77 h. In “Pharmacokinetics in rats” (iv 1 mg/Kg, read-out: T1/2, iv (converted)), the half-life was 5.57 ± 1.46 h. The Vd in the data set “Pharmacokinetics in rats” (iv 1 mg/Kg, read-out: Vss) was determined as 0.33 ± 0.01 L/kg. Also, in “Pharmacokinetics in rats” (po 3 mg/Kg), the peak concentration (Cmax) came to 7770 ± 1940 ng/mL, the Tmax is 1 h and the MRT came to 5.74 ± 0.1 h. In the data set “Pharmacokinetics in rats” (po 3 mg/Kg vs iv 1 mg/Kg), this compound returned a bioavailability of 93%. Besides, the half-life in the data set “Pharmacokinetics in rats” (po 3 mg/Kg, read-out: T1/2, po (converted)) was 5.45 ± 0.79 h.

Turning to `CC#C[C@@H](CC(=O)O)c1ccc(OCc2cccc(CN3CCc4ncccc4C3)c2)cc1` [Compound 68, (S)-3-(4-((3-((7,8-Dihydro-1,6-naphthyridin-6(5H)-yl)methyl)benzyl)oxy)phenyl) hex-4-ynoic acid], the EC50 at GPR40 (setting [1]) came to 11.9 nM.

`CC#C[C@@H](CC(=O)O)c1ccc(OCc2cccc(CN3CCCc4ccc(OC)cc43)c2)cc1` [Compound 30, 1-(3-((4-((S)-1-carboxypent-3-yn-2-yl)phenoxy)methyl)benzyl)-7-methoxy-1,2,3,4-tetrahydroquinolin-1-ium formate]: at GPR40 (setting [1]), the EC50 came to 4.5 nM. Still for that read-out and setting: as for `CC#C[C@@H](CC(=O)O)c1ccc(OCc2cccc(CN3CCc4nc(Cl)sc4C3)c2)cc1` [Compound 31, (S)-3-(4-((3-((2-Chloro-6,7-dihydrothiazolo[5,4-c]pyridin-5(4H)-yl)methyl)benzyl)oxy)phenyl)hex-4-ynoic acid], the figure is 9.7 nM; as for `CC#C[C@@H](CC(=O)O)c1ccc(OCc2cccc(CN3CCc4nc(OC)ncc4C3)c2)cc1` [Compound 50, (S)-3-(4-((3-((2-Methoxy-7,8-dihydropyrido[4,3-d]pyrimidin-6(5H)-yl)methyl)benzyl)oxy)phenyl)hex-4-ynoic acid], 20.8 nM; as for `CC#C[C@@H](CC(=O)O)c1ccc(OCc2cccc(CN3CCc4sc(C(F)F)cc4C3)c2)cc1` [Compound 18, (S)-3-(4-((3-((2-(Difluoromethyl)-6,7-dihydrothieno[3,2-c]pyridin-5(4H)-yl)methyl)benzyl)oxy)phenyl)hex-4-ynoic acid], 8.8 nM. For the compound `CC#CC(CC(=O)O)c1ccc(OCc2cccc(CN3CCc4sc(C)cc4C3)c2)cc1` (stereo not drawn) [Compound 58, 3-(4-((3-((2-Methyl-6,7-dihydrothieno[3,2-c]pyridin-5(4H)-yl)methyl)benzyl)oxy)phenyl)hex-4-ynoic acid], on GPR40 (setting [1]), the EC50 was 3.7 nM.

On to `CC#C[C@@H](CC(=O)O)c1ccc(OCc2cccc(CN3CCc4nc(C)sc4C3)c2)cc1` [Compound 10, (S)-3-(4-((3-((2-methyl-6,7-dihydrothiazolo[5,4-c]pyridin-5(4H)-yl)methyl)benzyl)oxy)phenyl)hex-4-ynoic acid], for which, at GPR40 (setting [1]), the EC50 came to 16.9 nM. The “% improvement in AUC glucose vs. control” value is reported as 21.1% in the data set with n-STZ rat model (0.1 mg/Kg per oral), 35.7% in the data set with n-STZ rat model (1 mg/Kg per oral) and 45.0% in the data set with n-STZ rat model (10 mg/Kg per oral).

Take `CC#C[C@@H](CC(=O)O)c1ccc(OCc2cccc(CN3CCc4sc(CC)cc4C3)c2)cc1` [Compound 71, (S)-3-(4-((3-((2-Ethyl-6,7-dihydrothieno[3,2-c]pyridin-5(4H)-yl)methyl)benzyl)oxy)phenyl)hex-4-ynoic acid]: the EC50 at GPR40 (setting [1]) worked out at 0.4 nM. The same measure, in the same setting: as for `CC#C[C@@H](CC(=O)O)c1ccc(OCc2cccc(CN3CCc4sc(C#N)cc4C3)c2)cc1` [Compound 43, (S)-3-(4-((3-((2-cyano-6,7-dihydrothieno[3,2-c]pyridin-5(4H)-yl)methyl)benzyl)oxy)phenyl)hex-4-ynoic acid], the figure is 7.3 nM. In the case of `CC#C[C@@H](CC(=O)[O][Ca][O]C(=O)C[C@H](C#CC)c1ccc(OCc2cccc(CN3CCc4ccccc4C3)c2)cc1)c1ccc(OCc2cccc(CN3CCc4ccccc4C3)c2)cc1` [Compound 20, Calcium (S)-3-(4-((3-((3,4-dihydroisoquinolin-2(1H)-yl)methyl)benzyl)oxy)phenyl)hex-4-ynoate], the EC50 on GPR40 (EC50 in Luciferase assay) came to 2.7 nM. As to `CC#C[C@H](CC(=O)O)c1ccc(OCc2cccc(CN3CCc4sc(C)cc4C3)c2)cc1` [Compound 55, (R)-3-(4-((3-((2-methyl-6,7-dihydrothieno[3,2-c]pyridin-5(4H)-yl)methyl)benzyl)oxy)phenyl)hex-4-ynoic acid], the EC50 at GPR40 (setting [1]) was determined as 56.5 nM. On the same count and under the same terms, as for `CC#C[C@@H](CC(=O)O)c1ccc(OCc2cccc(CN3CCc4sc(C(=O)N5CCCC5)cc4C3)c2)cc1` [Compound 62, (S)-3-(4-((3-((2-(pyrrolidine-1-carbonyl)-6,7-dihydrothieno[3,2-c]pyridin-5(4H)-yl)methyl)benzyl)oxy)phenyl)hex-4-ynoic acid], the figure is 3 nM.

Regarding `CC#C[C@@H](CC(=O)O)c1ccc(OCc2cccc(CN3CCc4sc(C(=O)NC)cc4C3)c2)cc1` [Compound 46, (S)-3-(4-((3-((2-(methylcarbamoyl)-6,7-dihydrothieno[3,2-c]pyridin-5(4H)-yl)methyl)benzyl)oxy)phenyl)hex-4-ynoic acid], the EC50 at GPR40 (setting [1]) was 6 nM.

As for `CC#C[C@@H](CC(=O)[O][Ca][O]C(=O)C[C@H](C#CC)c1ccc(OCc2cccc(CN3CCc4sc(Cl)cc4C3)c2)cc1)c1ccc(OCc2cccc(CN3CCc4sc(Cl)cc4C3)c2)cc1` [Compound 39, Calcium (S)-3-(4-((3-((2-chloro-6,7-dihydrothieno[3,2-c]pyridin-5(4H)-yl)methyl)benzyl)oxy)phenyl)hex-4-ynoate], the EC50 at GPR40 (EC50 in Luciferase assay) is 1.7 nM. Turning to `CC#C[C@@H](CC(=O)O)c1ccc(OCc2cccc(CN3CCc4sc(C(C)=O)cc4C3)c2)cc1` [Compound 72, (S)-3-(4-((3-((2-Acetyl-6,7-dihydrothieno[3,2-c]pyridin-5(4H)-yl)methyl)benzyl)oxy)phenyl)hex-4-ynoic acid], the EC50 on GPR40 (setting [1]) worked out at 2.3 nM. For `CC#C[C@@H](CC(=O)O)c1ccc(OCc2cccc(CN3CCc4ccccc4C3)c2)cc1` [Compound 15, (S)-3-(4-((3-((3,4-dihydroisoquinolin-2(1H)-yl)methyl)benzyl)oxy)phenyl)hex-4-ynoic acid], the EC50 on GPR40 (setting [1]) was 4.6 nM.

Turning to `CC#C[C@@H](CC(=O)O)c1ccc(OCc2cccc(CN3CCc4sc(C=O)cc4C3)c2)cc1` [Compound 44, (S)-3-(4-((3-((2-formyl-6,7-dihydrothieno[3,2-c]pyridin-5(4H)-yl)methyl)benzyl)oxy)phenyl)hex-4-ynoic acid], the EC50 at GPR40 (setting [1]) came out at 4.8 nM.

Regarding `CC#C[C@@H](CC(=O)O)c1ccc(OCc2cccc(CN3CCc4c(ccn4C(=O)OC(C)(C)C)C3)c2)cc1` [Compound 8, (S)-3-(4-((3-((1-(tert-butoxycarbonyl)-6,7-dihydro-1H-pyrrolo[3,2-c]pyridin-5(4H)-yl)methyl)benzyl)oxy)phenyl)hex-4-ynoic acid], the EC50 on GPR40 (setting [1]) came out at 11.8 nM.

For the compound `CC#C[C@@H](CC(=O)O)c1ccc(OCc2cccc(CN3CCc4sc(NC(C)=O)cc4C3)c2)cc1` [Compound 63, (S)-3-(4-((3-((2-Aacetamido-6,7-dihydrothieno[3,2-c]pyridin-5(4H)-yl)methyl)benzyl)oxy)phenyl)hex-4-ynoic acid], the EC50 at GPR40 (setting [1]) worked out at 4.4 nM.

Regarding `CC#C[C@@H](CC(=O)O)c1ccc(OCc2cccc(CN3CCc4sc(C(=O)NC5CC5)cc4C3)c2)cc1` [Compound 61, (S)-3-(4-((3-((2-(cyclopropylcarbamoyl)-6,7-dihydrothieno[3,2-c]pyridin-5(4H)-yl)methyl)benzyl)oxy)phenyl)hex-4-ynoic acid], the EC50 at GPR40 (setting [1]) worked out at 12.6 nM. Turning to `CC#C[C@@H](CC(=O)O)c1ccc(OCc2cccc(CN3CCc4sc(C(N)=O)cc4C3)c2)cc1` [Compound 40, (S)-3-(4-((3-((2-carbamoyl-6,7-dihydrothieno[3,2-c]pyridin-5(4H)-yl)methyl)benzyl)oxy)phenyl)hex-4-ynoic acid], the EC50 at GPR40 (setting [1]) turned out to be 8 nM.
